# Values quoted from earlier work in patent US8349312B2, “Proline substituted cyclosporin analogues” (Enanta Pharmaceuticals, Inc., priority 2009, dated 2013).
# How the values were obtained:
# [1] = tested on: hepatitis C virus; conditions: Paeshuyse et al., Antiviral Research 65(3):A41 (2005)
# [2] = molecular target: cyclophilin A (Homo sapiens, UniProt P62937)
# Chain of cyclophilin A (P62937 whole entry, species assumed): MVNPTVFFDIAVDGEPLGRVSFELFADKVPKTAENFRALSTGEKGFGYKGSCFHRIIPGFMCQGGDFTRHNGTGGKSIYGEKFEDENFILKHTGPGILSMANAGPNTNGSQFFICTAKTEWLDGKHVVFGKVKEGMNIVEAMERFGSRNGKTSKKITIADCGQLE
smiles,measurement,setting,value
C/C=C/C[C@@H](C)[C@@H](O)[C@H]1C(=O)N[C@@H](CC)C(=O)N(C)[C@H](C)C(=O)N(CC)[C@@H](C(C)C)C(=O)N[C@@H](C(C)C)C(=O)N(C)[C@@H](CC(C)C)C(=O)N[C@@H](C)C(=O)N[C@H](C)C(=O)N(C)[C@@H](CC(C)C)C(=O)N(C)[C@@H](CC(C)C)C(=O)N(C)[C@@H](C(C)C)C(=O)N1C [DEBIO-025],inhibition of hepatitis C virus replication,[1],potent and selective inhibition
same,binding affinity for cyclophilin A,[2],potent binding affinity
